# Laboratory results: patent publication US20250352561A1, “COMPOSITIONS AND METHODS USING TETRAHYDROCANNABINOL AND COMPOSITIONS INCLUDING SAME FOR TREATING INDICATIONS INVOLVING INFLAMMATION” (priority 2023, published 2025)
# Counter-ions that a name gives are not always drawn. Like-named read-outs stand apart in the source and are kept apart here.
# Columns and labels:
# [1] = cited from earlier work
# serotonin uptake = details: in vitro, rats; cited from earlier work
# norepinephrine reuptake = details: in vitro, rats; cited from earlier work
# [2] = tested on: alpha adrenergic receptors; details: in vitro; cited from earlier work
# [3] = cited from earlier work; for Multiple dose elimination half-life: steady state
# dopaminergic receptors = details: in vitro; cited from earlier work
# [4] = tested on: plasma protein, mostly albumin; details: concentration range of 20 to 2000 ng/mL, cited from earlier work
# muscarinic receptors = details: in vitro; cited from earlier work
# histaminergic receptors = details: in vitro; cited from earlier work
# [5] = tested on: neuronal uptake of serotonin; details: in vitro as well as in vivo; cited from earlier work
# [6] = hepatic dysfunction vs healthy subjects, cross study comparison; cited from earlier work
# [7] = tested on: beta adrenergic receptors; details: in vitro; cited from earlier work
# [8] = molecular target: sigma-1 non-opioid receptor (Homo sapiens, UniProt Q99720); details: compared with all pharmaceutical chemicals tested so far; cited from earlier work
# Chain of sigma-1 non-opioid receptor (Q99720 whole entry): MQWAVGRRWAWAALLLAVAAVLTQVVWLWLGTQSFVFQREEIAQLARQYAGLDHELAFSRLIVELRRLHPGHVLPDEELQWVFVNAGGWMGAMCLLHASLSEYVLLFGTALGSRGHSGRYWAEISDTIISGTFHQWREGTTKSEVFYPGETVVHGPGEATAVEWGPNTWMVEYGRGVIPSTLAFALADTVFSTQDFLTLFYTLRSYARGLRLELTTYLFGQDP
# [9] = cited from earlier work; remark: listed apart in the source
# [10] = fasted, n=34, cited from earlier work
# cytokine storm = details: cited from earlier work
# [11] = tested on: COVID-19 patients who required supplemental oxygen; assay: Retrospective clinical study of dronabinol plus standard of care in hospitalized COVID-19 patients requiring oxygen (Example 1); assay type: in vivo, human
# [12] = cited from earlier work; remark: listed apart in the source
# [13] = in vivo; cited from earlier work
# [14] = tested on: COVID-19-positive patients hospitalized for hypoxia; assay: Comparative analysis of dronabinol alone vs dronabinol plus fluvoxamine in COVID-19-positive patients hospitalized for hypoxia (Example 8, Table 6)
# Method: From October 2020 through December of 2020 a single infectious disease specialist treated consecutive adult COVID-19-positive patients hospitalized for hypoxia with oral dronabinol in addition to then current standard of care which consisted of ceftriaxone, azithromycin, dexamethasone, remdesivir, subcutaneous heparin, and convalescent plasma in addition to respiratory support per standard ICU protocols. Nine patients received 2.5 mg twice orally daily and 68 patients received 5 mg orally twice daily. A retrospective control group of consecutively treated COVID-19-positive patients hospitalized for hypoxia from June 2020 through August 2020, was treated with the same standard of care.
# 15, 2021, twelve consecutive un-vaccinated COVID-19-positive patients hospitalized for hypoxia were treated by a single physician. They received current standard of care which consisted of ceftriaxone, azithromycin, dexamethasone, remdesivir, and Eliquis in addition to respiratory support per standard ICU protocols. […] One patient was excluded from analysis due to pre-COVID-19 oxygen dependence, and because they were still in the hospital as of this writing on their twelfth hospital day.
# [15] = human, in vivo; cited from earlier work
smiles,measurement,setting,value
NCCO/N=C(\CCCC(=O)O)c1ccc(C(F)(F)F)cc1 [fluvoxamine acid],Share of urinary excretion products,[1]; fluvoxamine acid together with its N-acetylated analog,about 60%
same,Inhibition of serotonin uptake,serotonin uptake,weak effect
same,Potency relative to the parent compound (less potent),serotonin uptake,1-2 orders of magnitude
same,Norepinephrine reuptake inhibition,norepinephrine reuptake,inactive
"COCCCC/C(=N\OCCN)c1ccc(C(F)(F)F)cc1 [fluvoxamine, 2-[(E)-[5-methoxy-1-[4-(trifluoromethyl)phenyl]pentylidene]amino]oxyethanamine]",Affinity for alpha adrenergic receptors,[2],no significant affinity
same,Reduction of clearance,[3]; elderly patients,about 50%
same,Multiple dose elimination half-life,"[3]; elderly, 50 mg",17.4 h
same,Multiple dose elimination half-life,"[3]; elderly, 100 mg",25.9 h
same,Multiple dose elimination half-life,"[3]; young subjects, 50 mg",13.6 h
same,Multiple dose elimination half-life,"[3]; young subjects, 100 mg",15.6 h
same,Affinity for dopaminergic receptors,dopaminergic receptors,no significant affinity
same,Bound to plasma protein,[4],Approximately 80%
same,Bound to plasma protein,[4]; listed as Fluvoxamine,80%
same,Mean plasma half-life at steady state,"[1]; human, in vivo, po",15.6 h
same,Excreted in urine unchanged,[1]; in vivo,Approximately 2%
same,Affinity for muscarinic receptors,muscarinic receptors,no significant affinity
same,Affinity for histaminergic receptors,histaminergic receptors,no significant affinity
same,Serotonin reuptake inhibition,[5],potent serotonin reuptake inhibitor
same,Decrease in clearance,[6],30%
same,Affinity for beta adrenergic receptors,[7],no significant affinity
same,Agonistic sigma-1 binding affinity,[8],strongest agonistic sigma-1 binding affinity
CCCCCc1cc(O)c2c(c1)OC(C)(C)[C@@H]1CCC(CO)=C[C@@H]21 [11-OH-delta-9-THC],Plasma concentration of principal active metabolite relative to Δ9-THC,[9]; plasma,approximately equal concentrations
"CCCCCc1cc(O)c2c(c1)OC(C)(C)[C@@H]1CCC(C)=C[C@@H]21 [dronabinol, (−)-(6aR,10aR)-6,6,9-trimethyl-3-pentyl-6a,7,8,10a-tetrahydro-6H-benzo[c]-chromen-1-ol]","AUC (0-12), Mean (SD)",[10]; BID Dose 2.5 mg,2.88 (1.57) ng*hr/mL
same,"Cmax, Mean (SD)",[10]; BID Dose 2.5 mg,1.32 (0.62) ng/mL
same,Median Tmax (range),[10]; BID Dose 2.5 mg,1.00 (0.50-4.00) hr
same,"AUC (0-12), Mean (SD)",[10]; BID Dose 5 mg,6.16 (1.85) ng*hr/mL
same,"Cmax, Mean (SD)",[10]; BID Dose 5 mg,2.96 (1.81) ng/mL
same,Median Tmax (range),[10]; BID Dose 5 mg,2.50 (0.50-4.00) hr
same,"AUC (0-12), Mean (SD)",[10]; BID Dose 10 mg,15.2 (5.52) ng*hr/mL
same,"Cmax, Mean (SD)",[10]; BID Dose 10 mg,7.88 (4.54) ng/mL
same,Median Tmax (range),[10]; BID Dose 10 mg,1.50 (0.50-3.50) hr
same,Time for which low levels of metabolites are detected in urine and feces,[9]; following single dose administration,more than 5 weeks
same,Oral dose recovered unchanged in the feces,"[9]; in vivo, po",Less than 5%
same,Administered dose reaching the systemic circulation,[9]; oral dose,10-20%
same,Absorbed after oral dose,[9]; single oral doses,90-95%
same,Initial (alpha) half-life,[9]; two-compartment model,about 4 hours
same,Radio-labeled oral dose recovered from the feces,[9]; within 72 hours,about half
same,Mortality,cytokine storm; animal model of cytokine storm induced ARF and/or ARDS,decrease mortality
same,Prevention of death of animals that received a fatal dose of the biotoxin,cytokine storm; animal models,prevent the death of one hundred percent of all animals
same,Deaths,[11]; among the 77 patients in the treatment group,5
same,"Average first peak C-reactive protein (CRP) levels, difference (lower in treatment group)","[11]; vs control, p-value of 0.07, not statistically significant",14%
same,Duration of appetite stimulant effect,[12]; after administration,≥ 24 h
same,Time to tolerance to cardiovascular and subjective adverse CNS effects,"[12]; healthy male volunteers (N=12), 210 mg/day orally in divided doses for 16 days",≤ 12 days
same,Persistence of appetite stimulant effect,"[12]; patients with AIDS, Δ9-THC capsules 2.5 mg/day to 20 mg/day",sustained for up to five months
same,Reported fatality from overdosage,[13],has not had a reported fatality from overdosage
same,# Survived,"[14]; 2.5 mg Dronabinol, total 9 in group",8
same,LOS,"[14]; 5 mg Dronabinol, length of hospital stay",8.8
same,# Survived,"[14]; 5 mg Dronabinol, total 68 in group",64
COCCCC/C(=N\OCCO)c1ccc(C(F)(F)F)cc1 [fluvoxamine ethanol],Share of urinary excretion products,[1]; fluvoxamine ethanol,about 10%
COCCCC/C(=N\OCCN)c1ccc(C(F)(F)F)cc1 [fluvoxamine maleate],Time of maximum plasma concentrations at steady state,[15],3 to 8 h
